Measurements as given in publication PMC4961957, “Dose-Dependent Suppression of Cytokine production from T cells by a Novel Phosphoinositide 3-Kinase Delta Inhibitor” (Scientific Reports, 2016).

Target: T1, PI3Kδ (p110δ) (Homo sapiens, UniProt O00329)
T1 construct: gene PIK3CD
Assay: FRET-based in vitro kinase assay; class I PI3K binding also seen in KinomeScan ATP-site competition panel ([…])
Assay type: biochemical

T1 sequence (O00329 whole entry): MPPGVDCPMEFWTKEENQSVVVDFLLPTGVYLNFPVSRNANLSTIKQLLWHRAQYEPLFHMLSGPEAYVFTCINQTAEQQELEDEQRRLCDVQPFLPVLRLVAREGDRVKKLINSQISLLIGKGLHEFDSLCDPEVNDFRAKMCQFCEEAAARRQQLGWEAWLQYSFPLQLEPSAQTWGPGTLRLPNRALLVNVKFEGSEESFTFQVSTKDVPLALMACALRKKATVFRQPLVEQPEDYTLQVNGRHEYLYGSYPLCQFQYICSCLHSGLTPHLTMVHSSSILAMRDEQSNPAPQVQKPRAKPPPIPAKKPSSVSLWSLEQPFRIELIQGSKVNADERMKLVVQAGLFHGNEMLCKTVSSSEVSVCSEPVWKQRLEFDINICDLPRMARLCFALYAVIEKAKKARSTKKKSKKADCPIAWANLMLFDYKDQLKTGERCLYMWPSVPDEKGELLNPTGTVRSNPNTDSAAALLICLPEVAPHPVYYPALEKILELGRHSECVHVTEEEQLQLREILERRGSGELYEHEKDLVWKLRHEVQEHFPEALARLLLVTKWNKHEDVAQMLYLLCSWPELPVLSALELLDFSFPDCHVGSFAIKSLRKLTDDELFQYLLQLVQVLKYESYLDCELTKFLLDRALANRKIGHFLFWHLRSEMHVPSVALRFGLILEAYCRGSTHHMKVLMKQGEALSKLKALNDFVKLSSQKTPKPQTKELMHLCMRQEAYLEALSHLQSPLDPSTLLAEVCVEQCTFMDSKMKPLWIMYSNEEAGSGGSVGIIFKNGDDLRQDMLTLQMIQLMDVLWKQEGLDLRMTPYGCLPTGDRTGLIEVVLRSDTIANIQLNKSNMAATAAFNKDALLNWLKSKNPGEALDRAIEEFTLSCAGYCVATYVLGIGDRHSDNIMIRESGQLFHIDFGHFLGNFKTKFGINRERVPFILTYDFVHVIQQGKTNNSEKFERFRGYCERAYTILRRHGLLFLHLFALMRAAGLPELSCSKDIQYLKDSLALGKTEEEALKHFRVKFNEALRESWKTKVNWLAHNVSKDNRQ

GS-649443 [Compound B] was tested. Which IC50 did it give?
The IC50 was 0.28 nM.
